Measured values from a melting point compilation (Tetko et al.).

First: COc1cc2c(cc1/C=C/C(=O)O)OC(C)C2 (stereo not drawn)
Second: CC(C)(C)Cc1noc2nc(C3CC3)cc(C(=O)O)c12
The melting point of the first is lower: 146 to 148 °C for the first, 164 to 166 °C for the second.

First: O=C(O)CNC(=O)c1ccc(Cl)c([N+](=O)[O-])c1
Second: O=C(O)CNC(=O)c1ccsc1
The melting point of the first is higher: 190 to 192 °C for the first, 176 to 178 °C for the second.

First: CC(C)(C)OC(=O)NCc1cn[nH]c1
Second: CC(C)(C)OC(=O)N1CC(CC(=O)O)C1
The melting point of the first is lower: 104 to 106 °C for the first, 109 to 111 °C for the second.

Compared with C=CCNC(=O)c1ccc(Cl)nc1, C=CCNC(=O)c1nc(C(=O)O)cs1 is higher in melting point: 105 to 107 °C for the first, 147 to 149 °C for the second.

First: Cc1c(NC(C)C(C)C)cccc1C(=O)O (stereo not drawn)
Second: O=C(O)c1cc(N2CCCC2=O)ccc1Cl
The melting point of the first is lower: 90 to 92 °C for the first, 159 to 161 °C for the second.

Compared with CS(=O)(=O)CCCI, CS(=O)(=O)NCC(=O)O is higher in melting point: 59 to 61 °C for the first, 174 to 176 °C for the second.

Compared with COc1cccc(-c2nnc(N)o2)c1OC, COc1cc(C#N)ccc1OC(C)C is lower in melting point: 185 to 187 °C for the first, 71 to 73 °C for the second.

First: Cn1cc(Nc2ccc(=O)n(C)c2)ccc1=O
Second: O=C(O)Cc1ccc(NC(=O)c2ccccc2I)cc1
The melting point of the first is higher: 270 to 272 °C for the first, 226 to 228 °C for the second.

First: Cn1c(C(=O)O)ccc1-c1ccc(F)cc1
Second: Cc1c(C(=O)O)cnn1-c1ccc(Br)cc1
The melting point of the first is lower: 159 to 161 °C for the first, 211 to 213 °C for the second.

Compared with O=C(O)CNS(=O)(=O)c1ccc(Cl)c(Cl)c1, O=C(O)c1ccc(Cl)c(S(=O)(=O)Nc2ccc(Cl)cc2)c1 is higher in melting point: 127 to 129 °C for the first, 214 to 216 °C for the second.

First: O=C(CBr)c1ccc2c(c1)CCC2
Second: O=C(O)c1ccc(Cl)c(N2CCCS2(=O)=O)c1
The melting point of the first is lower: 57 to 59 °C for the first, 212 to 214 °C for the second.

First: O=c1[nH]cnc2ncccc12
Second: O=C1NS(=O)(=O)c2ncccc21
The melting point of the first is higher: 249 to 251 °C for the first, 199 to 201 °C for the second.

Compared with CC(C)(C)c1ccc(C2(C(=O)O)CC2)cc1, CC(C)(C)c1ccc(N2CCC(N)CC2)cc1 is lower in melting point: 201 to 203 °C for the first, 80 to 82 °C for the second.

First: CCc1ccc(C(=O)Nc2ccc(N)cc2Cl)s1
Second: Nc1ccc(Cl)c(C(=O)Nc2ccccc2)c1
The melting point of the first is higher: 120 to 122 °C for the first, 115 to 117 °C for the second.

Compared with Cn1c(=O)n(CCC(=O)O)c2ccccc21, O=C(CCOc1ccccc1)NO is lower in melting point: 226 to 228 °C for the first, 138 to 140 °C for the second.

First: CC1(COS(C)(=O)=O)COC1
Second: CC1(Br)CS(=O)(=O)CC1Br (stereo not drawn)
The melting point of the first is lower: 32 to 34 °C for the first, 126 to 128 °C for the second.

First: N#Cc1cccc(Oc2ccc(Cl)cc2)n1
Second: COc1ccc(N(C)S(=O)(=O)c2cccc(C(=O)O)c2)cc1
The melting point of the first is lower: 86 to 88 °C for the first, 172 to 174 °C for the second.

Cn1ncc(CN)c1N and Cc1cc(N)n(C2CCOC2)n1 (stereo not drawn) fall in the same range of melting point: 91 to 93 °C for the first, 91 to 93 °C for the second.

Compared with Nc1ccc(Sc2ccncc2)cc1, Nc1ncc(-c2ccccc2)s1 is higher in melting point: 169 to 171 °C for the first, 198 to 200 °C for the second.

First: NCc1cn(-c2ccccc2)nc1-c1ccccc1
Second: COc1ccc(-c2nn(-c3ccccc3)cc2C=O)cc1
The melting point of the first is lower: 61 to 63 °C for the first, 135 to 137 °C for the second.

First: Cc1n[nH]c(C2CCCCC2)n1
Second: O=C(O)C1CCCCN1S(=O)(=O)c1ccc(Br)s1 (stereo not drawn)
The melting point of the first is higher: 127 to 129 °C for the first, 125 to 127 °C for the second.

Compared with CC1CCCN1C(=O)c1ccc(C#N)cc1 (stereo not drawn), O=C(O)C1CCCN(C(=O)c2ccccn2)C1 (stereo not drawn) is higher in melting point: 87 to 89 °C for the first, 167 to 169 °C for the second.

Compared with NNC(=O)Nc1cccc(Cl)c1, O=C(O)CN(Cc1ccco1)c1cccc(Cl)c1 is higher in melting point: 107 to 109 °C for the first, 115 to 117 °C for the second.

Compared with O=S(=O)(Cc1ccccc1)N1CCNCC1, O=C(c1[nH]nc2ccccc12)N1CCNCC1 is higher in melting point: 129 to 131 °C for the first, 179 to 181 °C for the second.

First: O=C(O)C1(c2ccccc2Cl)CCOCC1
Second: NCC1(O)CCOCC1
The melting point of the first is higher: 201 to 203 °C for the first, 65 to 67 °C for the second.

First: CC(SCc1ncc(-c2ccc(Cl)cc2)o1)C(=O)O (stereo not drawn)
Second: Cc1ccc(-c2cnc(CCC(=O)O)o2)cc1C
The melting point of the first is lower: 129 to 131 °C for the first, 159 to 161 °C for the second.

First: COC(=O)c1cc2c(Br)cccc2[nH]1
Second: CCOC(=O)Nc1ccc2c(CCl)cc(=O)oc2c1
The melting point of the first is lower: 159 to 161 °C for the first, 247 to 249 °C for the second.

First: CN(C)c1ccc(C2CC2C(=O)O)cc1 (stereo not drawn)
Second: CC(N)(C(=O)O)c1ccc(Cl)cc1 (stereo not drawn)
The melting point of the first is lower: 119 to 121 °C for the first, 297 to 299 °C for the second.

First: COC(=O)Cn1cnc2c(N)ncnc21
Second: Nc1c(Cl)ncnc1NC1CC1
The melting point of the first is higher: 228 to 230 °C for the first, 139 to 141 °C for the second.

First: Clc1nc2cccnc2nc1Cl
Second: Clc1cnc2nc(Cl)oc2c1
The melting point of the first is higher: 143 to 145 °C for the first, 68 to 70 °C for the second.

First: Sc1nc(-c2cc3ccccc3o2)no1
Second: NC(=O)Cc1nc2ccccc2s1
The melting point of the first is lower: 152 to 154 °C for the first, 167 to 169 °C for the second.

First: O=Cc1ccc(-c2ccc(Cl)c(Cl)c2)s1
Second: CNC(C)c1ccc(S(N)(=O)=O)cc1 (stereo not drawn)
The melting point of the first is lower: 126 to 128 °C for the first, 145 to 147 °C for the second.

First: CNc1ccc(C)nn1
Second: Cc1cc(O)n2ncnc2c1
The melting point of the first is lower: 162 to 164 °C for the first, 254 to 256 °C for the second.

First: O=C(O)CCCS(=O)(=O)c1ccc(Br)cc1
Second: CN(c1ccc(O)cc1)S(=O)(=O)c1ccccc1F
The melting point of the first is higher: 117 to 119 °C for the first, 100 to 102 °C for the second.

First: NCC1CCN(c2ccncc2)CC1
Second: Nc1cc(C(F)(F)F)ccc1C1CCNCC1
The melting point of the first is lower: 72 to 74 °C for the first, 86 to 88 °C for the second.

First: NC(=S)NCc1ccc(F)cc1
Second: CC(C)(C)c1ccc(S(N)(=O)=O)s1
The melting point of the first is higher: 119 to 121 °C for the first, 80 to 82 °C for the second.

Work on NC(=O)C(N)C(N)=O yielded a melting point of 171 to 173 °C.
